Laboratory results as given in US12636297B2, “Boronic acid derivatives and therapeutic uses thereof” (priority 2019, dated 2026).
Read-outs that look alike come from different tables or passages of the source.

Tests used:
[1] = system: carbapenem resistant Enterobacteriaceae (CRE); test: MIC of antibiotics with Compound 1 against panel of 510 CRE clinical isolates; assay type: cell-based; conditions: antibiotic alone
Experimental: In this example, the antibiotics meropenem, cefepime, ceftolozane and cefiderocol, were tested in combination with Compound 1 at 4 μg/ml and 8 μg/ml against a panel of 510 clinical isolates representing various types of carbapenem resistant Enterobacteriaceae (CRE). Cefiderocol was tested at standard conditions, in […] media.

P. aeruginosa = test: Susceptibility testing of 262 P. aeruginosa strains with meropenem MIC >2 μg/mL; assay type: cell-based, Pseudomonas aeruginosa; conditions: Compound 1 at 8 μg/mL, breakpoints ≤8 μg/mL meropenem and cefepime, ≤4 μg/mL ceftolozane, ≤16 μg/mL piperacillin
Experimental: In addition, 509 Carbapenem-Resistant Enterobacteriaceae were tested with meropenem, cefepime, and ceftolozane alone and in combination with Compound 1 at 8 μg/mL. Furthermore, 262 strains of P. aeruginosa with a meropenem MIC>2 μg/mL were tested with meropenem, ceftolozane, cefepime and piperacillin alone and in combination with Compound 1 at 8 μg/mL.
262 strains of P. aeruginosa having a meropenem MIC greater than 2 μg/mL were tested with meropenem, ceftolozane, cefepime and piperacillin alone and Compound 1 at 8 μg/mL.

[2] = system: carbapenem resistant Acinetobacter baumannii; test: MIC of antibiotics with Compound 1 against panel of 503 carbapenem resistant Acinetobacter baumannii clinical isolates; assay type: cell-based; conditions: carbapenem resistant Acinetobacter baumannii (N = 503); antibiotic alone
Experimental: In another experiment, various antibiotics, meropenem, cefepime, ceftolozane and cefiderocol, were tested in combination with Compound 1 at 4 μg/ml and 8 μg/ml against the panel of 503 clinical isolates of carbapenem resistant Acinetobacter baumannii. […] Cefiderocol was tested at standard conditions, in […] media.

[3] = system: Pseudomonas aeruginosa (PA); test: Broth microdilution MIC of β-lactams alone and with Compound 1 against Pseudomonas aeruginosa clinical isolates (representative and challenge panels); assay type: cell-based; conditions: for MIC Distribution, % of isolates: Compound 1 at 8 μg/mL; for MIC Distribution, % of isolates / Minimum Inhibitory Concentration Distribution, % of isolates: AVI and TAZ at 4 μg/mL; for Minimum Inhibitory Concentration Distribution, % of isolates: representative panel of PA (N = 500), without Compound 1; for % susceptible, [S] / MIC50 / MIC90: Compound 1, AVI, and TAZ at fixed 4 μg/mL; for % susceptible, [S]: breakpoints MER ≤8, TOL ≤4, CAZ ≤8 μg/mL; for MIC50 / MIC90: Pseudomonas aeruginosa
Experimental: (§1) In this example the in vitro activity of Compound 1 was evaluated in combination with several β-lactams including sulbactam, meropenem, and ceftolozane against clinical isolates of carbapenem-resistant (CR) Acinetobacter baumannii (AB) and Pseudomonas aeruginosa (PA).

[4] = system: carbapenem-resistant (CR) Acinetobacter baumannii (AB); test: Broth microdilution MIC of β-lactams alone and with Compound 1 against carbapenem-resistant Acinetobacter baumannii clinical isolates; assay type: cell-based; conditions: Compound 1 at fixed 4 μg/mL; for % susceptible, [S]: breakpoints MER ≤8 μg/mL, TOL ≤4 μg/mL
Experimental: as §1

[5] = non-carbapenemase producing CRE, N = 45

Compound: C[C@@H](O)[C@H]1C(=O)N2C(C(=O)O)=C(S[C@@H]3CN[C@H](C(=O)N(C)C)C3)[C@H](C)[C@H]12 [MER, meropenem]
- MIC50 ([1]; CRE KPC, N = 168): 32 µg/mL
- MIC90 ([1]; CRE KPC, N = 168): > 32 µg/mL
- MIC50 ([1]; CRE MBL, N = 145): > 32 µg/mL
- MIC90 ([1]; CRE MBL, N = 145): > 32 µg/mL
- MIC50 ([1]; CRE OXA, N = 152): 32 µg/mL
- MIC90 ([1]; CRE OXA, N = 152): > 32 µg/mL
- MIC50 [1, 5]: 8 µg/mL
- MIC90 [1, 5]: 16 µg/mL
- % of susceptible organisms at breakpoints (P. aeruginosa; All strains (N = 262), meropenem MIC >2 μg/mL): 42%
- % of susceptible organisms at breakpoints (P. aeruginosa; MBL (N = 56)): 7%
- % of susceptible organisms at breakpoints (P. aeruginosa; No MBL (N = 206)): 51%
- MIC50 [2]: > 32 µg/mL
- MIC90 [2]: > 32 µg/mL
- MIC Distribution, % of isolates ([3]; MIC 0.125 μg/mL, PA CAZ-AVI R (CAZ-AVI >8 μg/mL)): .3%
- MIC Distribution, % of isolates ([3]; MIC 0.125 μg/mL, PA MER NS (MER >2 μg/mL), N = 612): 0.0%
- MIC Distribution, % of isolates ([3]; MIC 0.125 μg/mL, PA TOL-TAZ NS (TOL-TAZ >4 μg/mL)): 1.3%
- Minimum Inhibitory Concentration Distribution, % of isolates ([3]; MIC 0.125 μg/mL): 14.2%
- MIC Distribution, % of isolates ([3]; MIC 0.25 μg/mL, PA CAZ-AVI R (CAZ-AVI >8 μg/mL)): .6%
- MIC Distribution, % of isolates ([3]; MIC 0.25 μg/mL, PA MER NS (MER >2 μg/mL), N = 612): .0%
- MIC Distribution, % of isolates ([3]; MIC 0.25 μg/mL, PA TOL-TAZ NS (TOL-TAZ >4 μg/mL)): 2.7%
- Minimum Inhibitory Concentration Distribution, % of isolates ([3]; MIC 0.25 μg/mL): 33.0%
- MIC Distribution, % of isolates ([3]; MIC 0.5 μg/mL, PA CAZ-AVI R (CAZ-AVI >8 μg/mL)): .2%
- MIC Distribution, % of isolates ([3]; MIC 0.5 μg/mL, PA MER NS (MER >2 μg/mL), N = 612): .0%
- MIC Distribution, % of isolates ([3]; MIC 0.5 μg/mL, PA TOL-TAZ NS (TOL-TAZ >4 μg/mL)): 3.7%
- Minimum Inhibitory Concentration Distribution, % of isolates ([3]; MIC 0.5 μg/mL): 51.0%
- MIC Distribution, % of isolates ([3]; MIC 1 μg/mL, PA CAZ-AVI R (CAZ-AVI >8 μg/mL)): .5%
- MIC Distribution, % of isolates ([3]; MIC 1 μg/mL, PA MER NS (MER >2 μg/mL), N = 612): .0%
- MIC Distribution, % of isolates ([3]; MIC 1 μg/mL, PA TOL-TAZ NS (TOL-TAZ >4 μg/mL)): 6.0%
- Minimum Inhibitory Concentration Distribution, % of isolates ([3]; MIC 1 μg/mL): 66.2%
- MIC Distribution, % of isolates ([3]; MIC 2 μg/mL, PA CAZ-AVI R (CAZ-AVI >8 μg/mL)): .8%
- MIC Distribution, % of isolates ([3]; MIC 2 μg/mL, PA MER NS (MER >2 μg/mL), N = 612): .0%
- MIC Distribution, % of isolates ([3]; MIC 2 μg/mL, PA TOL-TAZ NS (TOL-TAZ >4 μg/mL)): 8.7%
- Minimum Inhibitory Concentration Distribution, % of isolates ([3]; MIC 2 μg/mL): 73.2%
- MIC Distribution, % of isolates ([3]; MIC 4 μg/mL, PA CAZ-AVI R (CAZ-AVI >8 μg/mL)): 1.0%
- MIC Distribution, % of isolates ([3]; MIC 4 μg/mL, PA MER NS (MER >2 μg/mL), N = 612): .5%
- MIC Distribution, % of isolates ([3]; MIC 4 μg/mL, PA TOL-TAZ NS (TOL-TAZ >4 μg/mL)): 13.7%
- Minimum Inhibitory Concentration Distribution, % of isolates ([3]; MIC 4 μg/mL): 79.8%
- MIC Distribution, % of isolates ([3]; MIC 8 μg/mL, PA CAZ-AVI R (CAZ-AVI >8 μg/mL)): 8.2%
- MIC Distribution, % of isolates ([3]; MIC 8 μg/mL, PA MER NS (MER >2 μg/mL), N = 612): 7.5%
- MIC Distribution, % of isolates ([3]; MIC 8 μg/mL, PA TOL-TAZ NS (TOL-TAZ >4 μg/mL)): 22.1%
- Minimum Inhibitory Concentration Distribution, % of isolates ([3]; MIC 8 μg/mL): 84.8%
- MIC Distribution, % of isolates ([3]; MIC 16 μg/mL, PA CAZ-AVI R (CAZ-AVI >8 μg/mL)): 8.9%
- MIC Distribution, % of isolates ([3]; MIC 16 μg/mL, PA MER NS (MER >2 μg/mL), N = 612): 6.7%
- MIC Distribution, % of isolates ([3]; MIC 16 μg/mL, PA TOL-TAZ NS (TOL-TAZ >4 μg/mL)): 32.8%
- Minimum Inhibitory Concentration Distribution, % of isolates ([3]; MIC 16 μg/mL): 90.4%
- MIC Distribution, % of isolates ([3]; MIC 32 μg/mL, PA CAZ-AVI R (CAZ-AVI >8 μg/mL)): 3.2%
- MIC Distribution, % of isolates ([3]; MIC 32 μg/mL, PA MER NS (MER >2 μg/mL), N = 612): 0.4%
- MIC Distribution, % of isolates ([3]; MIC 32 μg/mL, PA TOL-TAZ NS (TOL-TAZ >4 μg/mL)): 58.2%
- Minimum Inhibitory Concentration Distribution, % of isolates ([3]; MIC 32 μg/mL): 95.4%
- MIC Distribution, % of isolates ([3]; MIC >32 μg/mL, PA CAZ-AVI R (CAZ-AVI >8 μg/mL)): 100.0%
- MIC Distribution, % of isolates ([3]; MIC >32 μg/mL, PA MER NS (MER >2 μg/mL), N = 612): 100.0%
- MIC Distribution, % of isolates ([3]; MIC >32 μg/mL, PA TOL-TAZ NS (TOL-TAZ >4 μg/mL)): 100.0%
- Minimum Inhibitory Concentration Distribution, % of isolates ([3]; MIC >32 μg/mL): 100.0%
- Minimum Inhibitory Concentration Distribution, % of isolates ([3]; MIC ≤0.06 μg/mL): 4.8%
- MIC Distribution, % of isolates ([3]; MIC ≥0.06 μg/mL, PA CAZ-AVI R (CAZ-AVI >8 μg/mL)): .3%
- MIC Distribution, % of isolates ([3]; MIC ≥0.06 μg/mL, PA MER NS (MER >2 μg/mL), N = 612): 0.0%
- MIC Distribution, % of isolates ([3]; MIC ≥0.06 μg/mL, PA TOL-TAZ NS (TOL-TAZ >4 μg/mL)): 0.3%
- % susceptible, [S] ([3]; PA (CAZ-AVI MIC >8) (37)): (18.9) %
- % susceptible, [S] ([3]; PA (Challenge, 652)): (31.9) %
- % susceptible, [S] ([3]; PA (MER MIC >2) (612)): (27.5) %
- % susceptible, [S] ([3]; PA (Representative, 500)): (84.8) %
- % susceptible, [S] ([3]; PA (TOL-TAZ MIC >4) (39)): (21.1) %
- MIC50 ([3]; PA (CAZ-AVI MIC >8) (37)): 32 µg/mL
- MIC90 ([3]; PA (CAZ-AVI MIC >8) (37)): > 32 µg/mL
- MIC50 ([3]; PA (Challenge, 652)): 16 µg/mL
- MIC90 ([3]; PA (Challenge, 652)): > 32 µg/mL
- MIC50 ([3]; PA (MER MIC >2) (612)): 32 µg/mL
- MIC90 ([3]; PA (MER MIC >2) (612)): > 32 µg/mL
- MIC50 ([3]; PA (Representative, 500)): 0.5 µg/mL
- MIC90 ([3]; PA (Representative, 500)): 16 µg/mL
- MIC50 ([3]; PA (TOL-TAZ MIC >4) (39)): 32 µg/mL
- MIC90 ([3]; PA (TOL-TAZ MIC >4) (39)): > 32 µg/mL
- % susceptible, [S] ([4]; AB CP (100), defined carbapenemases): (0.0) %
- MIC50 ([4]; Acinetobacter baumannii, AB CP (100), defined carbapenemases, read-out: MIC50): > 32 µg/mL
- MIC90 ([4]; Acinetobacter baumannii, AB CP (100), defined carbapenemases, read-out: MIC90): > 32 µg/mL
- MIC50 ([4]; CRAB (300)): >32/>32 μg/mL
- MIC90 ([4]; CRAB (300)): >32/>32 μg/mL
- % susceptible, [S] ([4]; CRAB (300)): (1.0) %
